Measurements published in patent US20230295181A1, “INHIBITOR OF APOPTOSIS (IAP) PROTEIN ANTAGONISTS” (Sanford Burnham Prebys Medical Discovery Institute, priority 2020, published 2023).
pIC50: −log10 of the molar value. Structures can show the parent of a compound that is named as a salt.

Experiments:
Type in all cases: cell-based
[1] = tested on: OVCAR-4; assay: Cell viability (CellTiterGlo), OVCAR-4; conditions: Homo sapiens
Method: (§1) Candidate compounds are tested in 384-well plates for effects on cell viability in the presence or absence of an appropriate conventional anticancer drug. Cell viability is indirectly monitored in the first instance using CellTiterGlo (Promega Corp., Madison, WI) (Table D). To determine if cell death is apoptotic, the induction of caspase activity is assessed utilizing the CaspaseGlo Assay system (Promega Corp., Madison, WI) (Table E). Cell viability is monitored 1 to 3 days after addition of compounds and conventional drugs. […] A compound of any of the formulae as disclosed herein is evaluated in combination with said anticancer drug to determine which ML-IAP antagonist can sensitize most efficaciously. Select candidate compounds are tested in 14 point drug dose response (DDR) curves in a 384-well format in order to establish potency in combination with decreasing concentrations of lung cancer relevant drug regimens. Furthermore, checker-board titrations of a conventional drug and the candidate molecules are performed to search for synergy (using ISOBOLOGRAM analysis). Compounds and combinations as described herein are also tested for cytotoxicity against normal human cells (e.g. primary fibroblasts, lymphocytes, hepatocytes, epithelial and endothelial cells) using known methods.
(§2) Cell viability was evaluated following treatment with a compound as disclosed in Table D. Viability of cancer cells following treatment is indicated according to the following legend: […]

[2] = tested on: SKOV-3 cancer cell lines; assay: SKOV-3 cell viability after treatment with 10 μM test compound; conditions: for viability at 10 µM: Homo sapiens, SK-OV-3, 10 micromolar test compound, SKOV-3 cells; for % viability after treatment with 10 micromolar of test compound (SKOV-3 cells): 10 micromolar test compound
Method: SKOV-3 cancer cell lines were treated with a test compound, either as a pure enantiomer or a mixture of stereoisomers, at a concentration of 10 μM. Cell viability was evaluated following treatment with a compound as disclosed in Table B. Viability of cancer cells following treatment is indicated according to the following legend:
A=0-25% viability B=26-50% viability C=>50% viability

[3] = tested on: SKOV-3; assay: Cell viability (CellTiterGlo), SKOV-3; conditions: Homo sapiens, SK-OV-3
Method: as §1, §2

CN[C@@H](C)C(=O)N[C@H]1CCS[C@H]2CC(CCc3ccccc3)(CCc3ccccc3)[C@@H](C(=O)N[C@@H]3CCCc4ccccc43)N2C1=O [Compound 45, (4S,9aS)-4-((S)-2-(methylamino)propanamido)-5-oxo-8,8-diphenethyl-N—((R)-1,2,3,4-tetrahydronaphthalen-1-yl)octahydropyrrolo[2,1-b][1,3]thiazepine-7-carboxamide hydrochloride]
pIC50 [1]: < 6.00
viability at 10 µM [2]: 0 to 25%
pIC50 [3]: 6.00 to 7.00

C=CCC1(CC=C)C[C@@H]2SCC[C@H](NC(=O)[C@H](C)NC)C(=O)N2[C@@H]1C(=O)N[C@@H]1CCCc2ccccc21 [Compound 29, (4S,9aS)-8,8-diallyl-4-((S)-2-(methylamino)propanamido)-5-oxo-N—((R)-1,2,3,4-tetrahydronaphthalen-1-yl)octahydropyrrolo[2,1-b][1,3]thiazepine-7-carboxamide hydrochloride]
pIC50 [1]: < 6.00
% viability after treatment with 10 micromolar of test compound (SKOV-3 cells) ([2]; hydrochloride): A (A=0-25% viability)
pIC50 [3]: < 6.00

C=CCC1C[C@@H]2OCC[C@H](NC(=O)[C@H](C)NC)C(=O)N2[C@@H]1C(=O)N[C@@H]1CCCc2ccccc21 (stereo partly drawn) [Compound 15, (4S,9aS)-8,8-allyl-4-((S)-2-(methylamino)propanamido)-5-oxo-N—((R)-1,2,3,4-tetrahydronaphthalen-1-yl)octahydropyrrolo[2,1-b][1,3]oxazepine-7-carboxamide hydrochloride]
pIC50 [1]: < 6.00
viability at 10 µM [2]: 26 to 50%
pIC50 [3]: 7.00 to 8.00

CN[C@@H](C)C(=O)N[C@H]1CCS[C@H]2CC(CCc3ccccc3)[C@@H](C(=O)N[C@@H]3CCCc4ccccc43)N2C1=O (stereo partly drawn) [Compound 44, (4S,9aS)-4-((S)-2-(methylamino)propanamido)-5-oxo-8,8-phenethyl-N—((R)-1,2,3,4-tetrahydronaphthalen-1-yl)octahydropyrrolo[2,1-b][1,3]thiazepine-7-carboxamide hydrochloride]
pIC50 [1]: < 6.00
% viability after treatment with 10 micromolar of test compound (SKOV-3 cells) ([2]; hydrochloride): A (A=0-25% viability)
pIC50 [3]: < 6.00

CN[C@@H](C)C(=O)N[C@H]1Cc2c([nH]c3ccccc23)[C@H]2CC(C)(C)C(C(=O)N[C@@H]3CCCc4ccccc43)N2C1=O (stereo in doubt) [Compound 2, (3R, 6S,12bR)-2,2-dimethyl-6-((S)-2-(methylamino)propanamido)-5-oxo-N—((R)-1,2,3,4-tetrahydronaphthalen-1-yl)-1,2,3,5,6,7,12,12b-octahydropyrrolo[1′,2′:1,2]azepino[3,4-b]indole-3-carboxamide hydrochloride]
pIC50 [1]: < 6.00
viability at 10 µM [2]: 26 to 50%
pIC50 [3]: < 6.00

C=CCC1C[C@@H]2SCC[C@H](NC(=O)[C@H](C)NC)C(=O)N2[C@@H]1C(=O)N[C@@H]1CCCc2ccccc21 (stereo partly drawn) [Compound 32, (4S,9aS)-8,8-allyl-4-((S)-2-(methylamino)propanamido)-5-oxo-N—((R)-1,2,3,4-tetrahydronaphthalen-1-yl)octahydropyrrolo[2,1-b][1,3]thiazepine-7-carboxamide hydrochloride]
pIC50 [1]: < 6.00
% viability after treatment with 10 micromolar of test compound (SKOV-3 cells) ([2]; hydrochloride): A (A=0-25% viability)
pIC50 [3]: 7.00 to 8.00

CCC1(CC)C[C@@H]2OCC[C@H](NC(=O)[C@H](C)NC)C(=O)N2[C@@H]1C(=O)N[C@@H]1CCCc2ccccc21 [Compound 21, (4S)-8,8-diethyl-4-((S)-2-(methylamino)propanamido)-5-oxo-N—((R)-1,2,3,4-tetrahydronaphthalen-1-yl)octahydropyrrolo[2,1-b][1,3]oxazepine-7-carboxamide hydrochloride]
pIC50 [1]: 6.00 to 7.00
viability at 10 µM [2]: 0 to 25%
pIC50 [3]: 7.00 to 8.00

CN[C@@H](C)C(=O)N[C@H]1CCO[C@H]2CC(C)(C)[C@@H](C(=O)N[C@@H]3CCSc4ccccc43)N2C1=O [Compound 69, (4S,7S,9aS)-8,8-dimethyl-4-((S)-2-(methylamino)propanamido)-5-oxo-N—((R)-thiochroman-4-yl)octahydropyrrolo[2,1-b][1,3]oxazepine-7-carboxamide hydrochloride]
pIC50 [1]: 6.00 to 7.00
viability at 10 µM [2]: 0 to 25%
pIC50 [3]: 7.00 to 8.00

CN[C@@H](C)C(=O)N[C@H]1CCO[C@H]2CC(C)(C)[C@@H](C(=O)N[C@@H]3CCOc4ccccc43)N2C1=O [Compound 74, (4S,7S,9aS)—N—((R)-chroman-4-yl)-8,8-dimethyl-4-((S)-2-(methylamino)propanamido)-5-oxooctahydropyrrolo[2,1-b][1,3]oxazepine-7-carboxamide hydrochloride]
pIC50 [1]: 6.00 to 7.00
viability at 10 µM [2]: 0 to 25%
pIC50 [3]: 7.00 to 8.00

CN[C@@H](C)C(=O)N[C@H]1Cc2c([nH]c3ccccc23)[C@H]2CC(C)(C)[C@@H](C(=O)NC(c3ccccc3)c3ccccc3)N2C1=O [Compound 54, (6S)—N-benzhydryl-2,2-dimethyl-6-((S)-2-(methylamino)propanamido)-5-oxo-1,2,3,5,6,7,12,12b-octahydropyrrolo[1′,2′:1,2]azepino[3,4-b]indole-3-carboxamide hydrochloride]
viability at 10 µM [2]: > 50%

CCC1(CC)C[C@@H]2OCC[C@H](NC(=O)[C@H](C)NC)C(=O)N2[C@H]1C(=O)N[C@@H]1CCCc2ccccc21 [Compound 19, (4S)-8,8-diethyl-4-((S)-2-(methylamino)propanamido)-5-oxo-N—((R)-1,2,3,4-tetrahydronaphthalen-1-yl)octahydropyrrolo[2,1-b][1,3]oxazepine-7-carboxamide hydrochloride]
viability at 10 µM [2]: 26 to 50%

CCC1(CC)C[C@@H]2OCC[C@H](NC(=O)[C@H](C)NC)C(=O)N2[C@@H]1C(=O)NC(c1ccccc1)c1ccccc1 [Compound 59, (4S)—N-benzhydryl-8,8-diethyl-4-((S)-2-(methylamino)propanamido)-5-oxooctahydropyrrolo[2,1-b][1,3]oxazepine-7-carboxamide hydrochloride]
% viability after treatment with 10 micromolar of test compound (SKOV-3 cells) ([2]; hydrochloride): A (A=0-25% viability)

C=CCC1(CC=C)C[C@@H]2OCC[C@H](NC(=O)[C@H](C)NC)C(=O)N2[C@@H]1C(=O)NC(c1ccccc1)c1ccccc1 [Compound 50, (4S)-8,8-diallyl-N-benzhydryl-4-((S)-2-(methylamino)propanamido)-5-oxooctahydropyrrolo[2,1-b][1,3]oxazepine-7-carboxamide hydrochloride]
% viability after treatment with 10 micromolar of test compound (SKOV-3 cells) ([2]; hydrochloride): B (B=26-50% viability)

CCC1(CC)C[C@@H]2SCC[C@H](NC(=O)[C@H](C)NC)C(=O)N2[C@@H]1C(=O)N[C@@H]1CCCc2ccccc21 [Compound 35, (4S,9aS)-8,8-diethyl-4-((S)-2-(methylamino)propanamido)-5-oxo-N—((R)-1,2,3,4-tetrahydronaphthalen-1-yl)octahydropyrrolo[2,1-b][1,3]thiazepine-7-carboxamide hydrochloride]
% viability after treatment with 10 micromolar of test compound (SKOV-3 cells) ([2]; hydrochloride): A (A=0-25% viability)

C=CCC1(CC=C)C[C@@H]2OCC[C@H](NC(=O)[C@H](C)NC)C(=O)N2[C@@H]1C(=O)NC(c1ccccc1)c1ccccc1 [Compound 49, (4S)-8,8-diallyl-N-benzhydryl-4-((S)-2-(methylamino)propanamido)-5-oxooctahydropyrrolo[2,1-b][1,3]oxazepine-7-carboxamide hydrochloride]
% viability after treatment with 10 micromolar of test compound (SKOV-3 cells) ([2]; hydrochloride): B (B=26-50% viability)

CCC1(CC)C[C@@H]2OCC[C@H](NC(=O)[C@H](C)NC)C(=O)N2[C@@H]1C(=O)NC(c1ccccc1)c1ccccc1 [Compound 58, (4S)—N-benzhydryl-8,8-diethyl-4-((S)-2-(methylamino)propanamido)-5-oxooctahydropyrrolo[2,1-b][1,3]oxazepine-7-carboxamide hydrochloride]
% viability after treatment with 10 micromolar of test compound (SKOV-3 cells) ([2]; hydrochloride): B (B=26-50% viability)

C=CCC1(CC=C)C[C@@H]2OCC[C@H](NC(=O)[C@H](C)NC)C(=O)N2C1C(=O)N[C@@H]1CCCc2ccccc21 (stereo partly drawn) [Compound 12, (4S,9aS)-8,8-diallyl-4-((S)-2-(methylamino)propanamido)-5-oxo-N—((R)-1,2,3,4-tetrahydronaphthalen-1-yl)octahydropyrrolo[2,1-b][1,3]oxazepine-7-carboxamide hydrochloride]
viability at 10 µM [2]: 26 to 50%

CN[C@@H](C)C(=O)N[C@H]1Cc2cc(OC)ccc2[C@H]2CC(C)(C)C(C(=O)N[C@@H]3CCCc4ccccc43)N2C1=O (stereo partly shown) [Compound 7]
% viability after treatment with 10 micromolar of test compound (SKOV-3 cells) [2]: B (B=26-50% viability)

CN[C@@H](C)C(=O)N[C@H]1Cc2ccc(OC)cc2[C@H]2CC(C)(C)[C@H](C(=O)N[C@@H]3CCCc4ccccc43)N2C1=O [Compound 10, (6S,11bR)-10-methoxy-2,2-dimethyl-6-((S)-2-(methylamino)propanamido)-5-oxo-N—((R)-1,2,3,4-tetrahydronaphthalen-1-yl)-2,3,5,6,7,11b-hexahydro-1H-benzo[c]pyrrolo[1,2-a]azepine-3-carboxamide hydrochloride]
viability at 10 µM [2]: 26 to 50%
